# Legend:
# [1] = system: anti-OVA-specific IgG2a subclass antibody; assay: Adjuvant activity: anti-OVA-specific IgG2a subclass antibody in serum after secondary immunization; type: in vivo, BALB/c mice; details: Example 21; s.c.; SZ62 0.256 μmol in 5% αCD saline, CpG 5 μg, MPL 5 μg, Addavax 1:1, Alum; two weeks from secondary immunization
# Procedure: Two weeks from the secondary immunization, the whole blood was extracted under anesthesia, and the obtained serum sample was measured for anti-OVA-specific IgG1 subclass antibody.
# Measurement Method of anti-OVA-specific IgG2a Subclass Antibody
# To a 96 well plate was added 5 μg/ml OVA at 100 μl/well, and the mixture was incubated at 4° C. overnight. After incubation, the mixture was washed three times with 200 μl of PBS-T (PBS+0.05%(v/v) Tween 20) per well, and blocked with 100 μl of 5% FCS/PBS solution per well at room temperature for 1 to 2 hr. Thereafter, the mixture was washed three times with PBS-T (200 μl/well), a diluted serum sample (100 μl/well) or the same amount of 5% FCS/PBS solution as a control was added, and the mixture was incubated at 37° C. for 1 hr. Thereafter, the mixture was washed five times with PBS-T (200 μl/well), a diluted biotinylated anti-mouse IgG2a antibody (100 μl/well) was added, and the mixture was incubated at 37° C. for 45 min. Thereafter, the mixture was washed five times with PBS-T (200 μl/well), a diluted anti-biotin-HRP antibody was added (100 μl/well), and the mixture was incubated at 37° C. for another 30 min. Thereafter, the mixture was washed five times with PBS-T (200 μl/well), TMB substrate solution was added (100 μl/well), and the mixture was incubated at room temperature for 10-15 min. Thereafter, a reaction quenching liquid (2N sulfuric acid solution) was added (50 μl/well) to discontinue a color developing reaction, and the absorbance (OD Value=450 nm) was measured by a microplate reader.
# Measurement Method of Concentration of anti-OVA-specific IgG1 Subclass Antibody and anti-OVA-specific IgG2a Subclass Antibody
# To a 96 well plate was added 5 μg/ml OVA at 100 μl/well, and the mixture was incubated at 4° C. overnight. After incubation, the mixture was washed three times with 200 μl of PBS-T (PBS+0.05% (v/v) Tween 20) per well, and blocked with 100 μl of 5% FCS/PBS solution per well at room temperature for 1 to for 2 hr. […] When an anti-OVA-specific IgG2a subclass antibody was measured, the standard of an anti-OVA-specific IgG2a subclass antibody was added at 50 ng/ml, 25 ng/ml, 12,5 ng/ml, 6.25 ng/ml, 3.125 ng/ml, 1.56 ng/ml, 0.781 ng/ml, 0.391 ng/ml, 0.195 ng/ml, 0.098 ng/ml, 0.049 ng/ml, 0 ng/ml, per 1 well. […] Thereafter, a reaction quenching liquid (2N sulfuric acid solution) was added (50 μl/well) to discontinue a color developing reaction, and the absorbance (OD Value=450 nm) was measured by a microplate reader. A standard curve was drawn from the measured OD values, and the concentration was calculated.
# [2] = system: anti-OVA-specific IgG1 subclass antibody; assay: Adjuvant activity: anti-OVA-specific IgG1 subclass antibody in serum after secondary immunization (Examples 12, 19, 20, 21); type: in vivo, BALB/c mice; details: Example 21; s.c.; SZ62 0.256 μmol in 5% αCD saline, CpG 5 μg, MPL 5 μg, Addavax 1:1, Alum; two weeks from secondary immunization
substance,measurement,setting,value
"monophosphoryl lipid [MPL, reference compound]",anti-OVA-specific IgG2a subclass antibody production as compared to the OVA single administration group,[1],tended to increase
same,anti-OVA-specific IgG1 subclass antibody production as compared to the OVA single administration group,[2],significantly increased

# Reference: patent US20180243421A1, “IMMUNOSTIMULATING AGENT” (AJINOMOTO CO., INC., priority 2015, published 2018)
